In ChEMBL document CHEMBL5715956, “Selective Targeting of Bromodomains of the Bromodomain-PHD Fingers Family Impairs Osteoclast Differentiation” (ACS Chem Biol, 2017):

Experiments:
Peregrin (Homo sapiens) [1] = biological target: T1, Peregrin (Homo sapiens) (UniProt P55201); experiment: Binding affinity to […] (unknown origin) assessed as change in enthalpy at 17 uM by Isothermal titration calorimetry
T1 sequence (whole entry): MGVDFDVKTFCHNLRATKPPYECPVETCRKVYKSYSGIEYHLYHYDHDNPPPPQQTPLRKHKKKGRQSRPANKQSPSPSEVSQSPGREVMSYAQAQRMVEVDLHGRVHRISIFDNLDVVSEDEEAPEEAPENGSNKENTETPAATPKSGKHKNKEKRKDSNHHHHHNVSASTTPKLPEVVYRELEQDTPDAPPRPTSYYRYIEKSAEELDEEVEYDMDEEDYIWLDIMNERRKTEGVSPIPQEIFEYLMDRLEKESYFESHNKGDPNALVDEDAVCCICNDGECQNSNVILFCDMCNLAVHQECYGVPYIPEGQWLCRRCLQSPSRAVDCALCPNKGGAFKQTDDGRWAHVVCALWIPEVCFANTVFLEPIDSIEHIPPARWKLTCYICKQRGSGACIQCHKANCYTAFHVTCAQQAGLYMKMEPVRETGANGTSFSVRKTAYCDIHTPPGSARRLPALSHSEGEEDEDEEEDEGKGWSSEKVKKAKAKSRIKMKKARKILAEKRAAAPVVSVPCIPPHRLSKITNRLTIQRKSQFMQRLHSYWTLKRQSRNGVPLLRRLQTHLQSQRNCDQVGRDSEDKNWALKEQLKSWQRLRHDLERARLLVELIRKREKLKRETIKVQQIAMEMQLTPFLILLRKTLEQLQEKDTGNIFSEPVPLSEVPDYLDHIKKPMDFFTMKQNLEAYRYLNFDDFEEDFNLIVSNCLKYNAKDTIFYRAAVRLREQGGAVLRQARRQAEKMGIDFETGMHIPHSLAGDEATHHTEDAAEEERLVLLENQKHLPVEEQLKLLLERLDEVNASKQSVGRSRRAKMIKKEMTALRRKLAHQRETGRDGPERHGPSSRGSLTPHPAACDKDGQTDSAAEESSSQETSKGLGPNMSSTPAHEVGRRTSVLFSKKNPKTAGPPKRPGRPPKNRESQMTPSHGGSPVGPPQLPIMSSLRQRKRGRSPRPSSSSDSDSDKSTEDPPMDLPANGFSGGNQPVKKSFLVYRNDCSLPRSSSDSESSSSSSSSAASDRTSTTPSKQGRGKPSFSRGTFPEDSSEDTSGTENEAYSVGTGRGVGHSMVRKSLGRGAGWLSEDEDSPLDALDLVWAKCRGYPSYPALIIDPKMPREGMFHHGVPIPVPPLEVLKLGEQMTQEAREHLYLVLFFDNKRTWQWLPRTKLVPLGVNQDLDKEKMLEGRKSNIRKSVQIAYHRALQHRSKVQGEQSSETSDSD

Peregrin (Homo sapiens) [2] = biological target: T1, Peregrin (Homo sapiens); experiment: Binding affinity to […] (unknown origin) assessed as change in entropy at 17 uM by Isothermal titration calorimetry
Homo sapiens = species on record: Homo sapiens; experiment: Binding affinity to Cl channel GABA gated receptor (unknown origin) assessed as specific binding at 10 uM relative to control
[3] = biological target: Bromodomain-containing protein 4 (Homo sapiens) (UniProt O60885); conditions: dose 10.0 µM

`COc1cc2c(cc1NS(=O)(=O)c1ccc(Br)cc1C)n(C)c(=O)n2C` gave a deltaH (Peregrin (Homo sapiens) [1]) of -12.6 kcal/mol, a deltaS (Peregrin (Homo sapiens) [2]) of -0.012 kcal/mol/K and an Activity (Homo sapiens) of 95.3%. It also gave a ΔTm [3] of 2 °C.
